# Values joined by “and” are separate entries in the source; they are usually repeats but may differ in a detail not shown here. Equal values may be shown once. Read-outs that look alike come from different tables or passages of the source.
# Key:
# [1] = tested on: clade B YU2 Env LM on HEK293T cells; type: binding; settings: temsavir 10 µM, listed as TMR
# [2] = tested on: HIV-1 pseudovirus bearing EnvJR-FL S375F; assay: organism not typed; type: cell-based
# [3] = tested on: HIV-1 pseudovirus bearing clade B YU2 Env LM+ST; assay: organism not typed; type: cell-based; settings: for Relative infectivity (%): YU2 LM+ST
# [4] = tested on: CRF01_AE 92TH023 Env LMHT on HEK293T cells; type: binding; settings: 92TH023 LMHT; temsavir 10 µM; listed as TMR
# [5] = tested on: HIV-1 pseudovirus bearing CRF01_AE CM244 Env LM; assay: organism not typed; type: cell-based; settings: for Relative infectivity (%): CM244 LM
# [6] = tested on: HIV-1JR-FL Env S375M on HEK293T cells; type: binding; settings: JRFL S375M; temsavir 10 µM; listed as TMR
# [7] = tested on: CRF01_AE 92TH023 Env LM on HEK293T cells; type: binding; settings: 92TH023 LM; temsavir 10 µM; listed as TMR
# [8] = tested on: HIV-1 pseudovirus bearing clade B YU2 Env Y61H; type: cell-based
# [9] = tested on: CRF01_AE CM244 Env WT on HEK293T cells; type: binding; settings: temsavir 10 µM, listed as TMR
# [10] = target: T1, clade B YU2 Env WT on HEK293T cells (Human immunodeficiency virus type 1 group M subtype B, UniProt P35961); type: binding; settings: temsavir 10 µM, listed as TMR
# T1 construct: expressed in transfected cells; host or cells: HEK293T (pSVIIIenv co-transfected with a Tat expressor)
# T1 sequence (P35961 32-843): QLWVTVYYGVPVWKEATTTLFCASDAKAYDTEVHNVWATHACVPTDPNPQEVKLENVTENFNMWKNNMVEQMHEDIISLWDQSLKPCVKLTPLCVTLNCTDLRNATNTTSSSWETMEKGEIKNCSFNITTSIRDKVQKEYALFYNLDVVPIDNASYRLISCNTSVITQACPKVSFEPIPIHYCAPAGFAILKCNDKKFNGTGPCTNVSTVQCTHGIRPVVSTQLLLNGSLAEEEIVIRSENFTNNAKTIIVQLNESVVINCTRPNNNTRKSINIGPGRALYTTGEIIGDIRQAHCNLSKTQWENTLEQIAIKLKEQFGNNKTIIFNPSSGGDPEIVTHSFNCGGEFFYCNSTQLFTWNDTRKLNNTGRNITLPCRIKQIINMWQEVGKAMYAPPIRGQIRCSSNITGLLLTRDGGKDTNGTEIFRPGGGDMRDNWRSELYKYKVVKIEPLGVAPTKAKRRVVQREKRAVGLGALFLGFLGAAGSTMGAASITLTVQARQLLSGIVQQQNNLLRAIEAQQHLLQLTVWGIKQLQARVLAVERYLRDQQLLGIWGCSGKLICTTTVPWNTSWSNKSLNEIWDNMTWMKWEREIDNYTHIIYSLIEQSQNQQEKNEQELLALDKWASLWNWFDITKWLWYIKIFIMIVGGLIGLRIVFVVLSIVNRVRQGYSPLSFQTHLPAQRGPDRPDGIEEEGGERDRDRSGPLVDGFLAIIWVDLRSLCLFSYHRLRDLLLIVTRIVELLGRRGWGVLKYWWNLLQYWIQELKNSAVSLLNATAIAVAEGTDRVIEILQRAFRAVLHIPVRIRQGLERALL
# [11] = tested on: HIV-1 pseudovirus bearing clade B YU2 Env H105Q/I108V; type: cell-based
# [12] = tested on: clade B YU2 Env LMST on HEK293T cells; type: binding; settings: temsavir 10 µM, listed as TMR
# [13] = tested on: HIV-1 pseudovirus bearing clade B YU2 Env LM; assay: organism not typed; type: cell-based; settings: for Relative infectivity (%): YU2 LM
# [14] = tested on: HIV-1 pseudovirus bearing CRF01_AE 92TH023 Env LMHS; assay: organism not typed; type: cell-based; settings: for Relative infectivity (%): 92TH023 LMHS
# [15] = tested on: HIV-1 pseudovirus bearing CRF01_AE 92TH023 Env LM; assay: organism not typed; type: cell-based; settings: for Relative infectivity (%): 92TH023 LM
# [16] = tested on: HIV-1JR-FL Env S375N on HEK293T cells; type: binding; settings: JRFL S375N; temsavir 10 µM; listed as TMR
# [17] = tested on: CRF01_AE CM244 Env LM on HEK293T cells; type: binding; settings: temsavir 10 µM, listed as TMR
# [18] = tested on: HIV-1JR-FL Env S375F on HEK293T cells; type: binding; settings: JRFL S375F; temsavir 10 µM; listed as TMR
# [19] = tested on: HIV-1 pseudovirus bearing clade B YU2 Env S375H; assay: organism not typed; type: cell-based; settings: for Relative infectivity (%): YU2 S375H
# [20] = tested on: HIV-1 pseudovirus bearing CRF01_AE 92TH023 Env WT; assay: organism not typed; type: cell-based; settings: for Relative infectivity (%): 92TH023 WT
# CRF01_AE strains = tested on: CRF01_AE strains; design: method as in PMID 30604750; settings: CRF01_AE strains; cited from earlier work
# [21] = tested on: HIV-1 pseudovirus bearing EnvJR-FL S375N; assay: organism not typed; type: cell-based; settings: for Relative infectivity (%): JRFL S375N
# [22] = tested on: HIV-1 pseudovirus bearing EnvJR-FL S375M; assay: organism not typed; type: cell-based
# [23] = tested on: HIV-1 pseudovirus bearing CRF01_AE 92TH023 Env LMHT; assay: organism not typed; type: cell-based; settings: for Relative infectivity (%): 92TH023 LMHT
# [24] = tested on: HIV-1 pseudovirus bearing clade B YU2 Env D474N/M475I/R476K; type: cell-based
smiles,measurement,setting,value
"COc1cnc(-n2cnc(C)n2)c2[nH]cc(C(=O)C(=O)N3CCN(C(=O)c4ccccc4)CC3)c12 [Temsavir, temsavir]",sCD4 binding (+TMR) - Fold over DMSO,[1],0.8112 and 0.8641 and 1.018
same,IC50,[2]; Cf2Th-CD4/CCR5,> 100 nM
same,Relative infectivity (%),"[2]; JRFL S375F, Temsavir 0.1 nM",97.0588% and 121.506% and 78.411%
same,IC50,[3]; Cf2Th-CD4/CCR5,32.1 nM
same,Relative infectivity (%),[3]; Temsavir 1 nM,95.2565% and 91.9655% and 79.6279%
same,Relative infectivity (%),[3]; Temsavir 5 nM,83.0048% and 82.0339% and 77.855%
same,Relative infectivity (%),[3]; Temsavir 10 nM,75.1553% and 73.7876% and 56.2664%
same,Relative infectivity (%),[3]; Temsavir 50 nM,36.2326% and 38.0343% and 31.1158%
same,Relative infectivity (%),[3]; Temsavir 100 nM,20.7287% and 13.4951% and 13.1747%
same,sCD4 binding (+TMR) - Fold over DMSO,[4],0.7044 and 0.6853 and 0.7442
same,Relative infectivity (%),[5]; Temsavir 1 nM,102.819% and 104.55% and 70.4862%
same,Relative infectivity (%),[5]; Temsavir 10 nM,98.1419% and 107.4% and 59.1318%
same,Relative infectivity (%),[5]; Temsavir 50 nM,106.175% and 96.9147% and 54.579%
same,IC50,[5]; Cf2Th-CD4/CCR5,> 50 nM
same,sCD4 binding (+TMR) - Fold over DMSO,[6],0.2258 and 0.2038 and 0.2793
same,sCD4 binding (+TMR) - Fold over DMSO,[7],1.042 and 0.933 and 0.9789
same,Relative infectivity (%),[8]; Temsavir 5 nM,2.81% and 1.74% and 3.98%
same,Relative infectivity (%),[8]; Temsavir 10 nM,1.05% and 1.23% and 1.34%
same,Relative infectivity (%),[8]; Temsavir 50 nM,1.04% and 1.28% and 3.8%
same,Relative infectivity (%),[8]; Temsavir 100 nM,0.97% and 2.23% and 1.32%
same,sCD4 binding (+TMR) - Fold over DMSO,[9],1.042 and 0.9403 and 0.9549
same,sCD4 binding (+TMR) - Fold over DMSO,[10],0.4934 and 0.673 and 0.6222
same,Relative infectivity (%),[11]; Temsavir 5 nM,1.06% and 2.62% and 1.23%
same,Relative infectivity (%),[11]; Temsavir 10 nM,1.04% and 2.29% and 1.51%
same,Relative infectivity (%),[11]; Temsavir 50 nM,0.98% and 2.22% and 1.35%
same,Relative infectivity (%),[11]; Temsavir 100 nM,1.01% and 5.2% and 2.05%
same,sCD4 binding (+TMR) - Fold over DMSO,[12],0.9452 and 1.1963 and 0.9128
same,IC50,[13]; Cf2Th-CD4/CCR5,9.17 nM
same,Relative infectivity (%),"[13]; Temsavir 1 nM, Fig 2f",76.4591% and 76.4018% and 119.182%
same,Relative infectivity (%),"[13]; Temsavir 2 nM, Fig S1",74.57% and 102.72% and 96.57%
same,Relative infectivity (%),"[13]; Temsavir 5 nM, Fig 2f",65.3412% and 84.0034% and 74.4376%
same,Relative infectivity (%),"[13]; Temsavir 10 nM, Fig 2f",41.1017% and 43.3512% and 50.8185%
same,Relative infectivity (%),"[13]; Temsavir 10 nM, Fig S1",72.47% and 80.59% and 43.3%
same,Relative infectivity (%),"[13]; Temsavir 50 nM, Fig 2f",13.0704% and 12.6708% and 13.2107%
same,Relative infectivity (%),"[13]; Temsavir 50 nM, Fig S1",31.31% and 45.33% and 30.59%
same,Relative infectivity (%),"[13]; Temsavir 100 nM, Fig 2f",5.153% and 3.308% and 7.353%
same,Relative infectivity (%),"[13]; Temsavir 100 nM, Fig S1",8.15% and 12.22% and 6.99%
same,Relative infectivity (%),[14]; Temsavir 1 nM,49.3528% and 37.816% and 43.3804%
same,Relative infectivity (%),[14]; Temsavir 5 nM,29.4428% and 33.6115% and 29.1035%
same,Relative infectivity (%),[14]; Temsavir 10 nM,21.0612% and 17.7261% and 12.1457%
same,Relative infectivity (%),[14]; Temsavir 50 nM,7.315% and 6.366% and 6.4059%
same,IC50,[14]; Cf2Th-CD4/CCR5,0.89 nM
same,Relative infectivity (%),[15]; Temsavir 1 nM,82.8885% and 105.829% and 81.5038%
same,Relative infectivity (%),[15]; Temsavir 5 nM,63.4532% and 71.1451% and 85.9246%
same,Relative infectivity (%),[15]; Temsavir 10 nM,66.9458% and 79.651% and 87.1271%
same,Relative infectivity (%),[15]; Temsavir 50 nM,76.0092% and 99.9867% and 85.6288%
same,IC50,[15]; Cf2Th-CD4/CCR5,> 50 nM
same,sCD4 binding (+TMR) - Fold over DMSO,[16],0.2273 and 0.2477 and 0.2229
same,sCD4 binding (+TMR) - Fold over DMSO,[17],1.043 and 1.054 and 0.9268
same,sCD4 binding (+TMR) - Fold over DMSO,[18],0.9879 and 0.8506 and 0.9038
same,IC50,[19]; Cf2Th-CD4/CCR5,22.9 nM
same,Relative infectivity (%),[19]; Temsavir 1 nM,63.2919% and 87.0597% and 84.5852%
same,Relative infectivity (%),[19]; Temsavir 5 nM,57.7086% and 71.798% and 64.2482%
same,Relative infectivity (%),[19]; Temsavir 10 nM,66.6494% and 65.3275% and 50.1024%
same,Relative infectivity (%),[19]; Temsavir 50 nM,26.1516% and 30.7973% and 25.917%
same,Relative infectivity (%),[19]; Temsavir 100 nM,13.7111% and 12.275% and 13.4865%
same,Relative infectivity (%),[20]; Temsavir 1 nM,89.8645% and 102.181% and 86.0322%
same,Relative infectivity (%),[20]; Temsavir 5 nM,77.4465% and 120.721% and 86.7772%
same,Relative infectivity (%),[20]; Temsavir 10 nM,69.308% and 86.3374% and 95.4665%
same,Relative infectivity (%),[20]; Temsavir 50 nM,75.3192% and 101.13% and 84.1355%
same,IC50,[20]; Cf2Th-CD4/CCR5,> 50 nM
same,IC50,CRF01_AE strains,> 5800 nM
same,IC50,[21]; Cf2Th-CD4/CCR5,1.22 nM
same,Relative infectivity (%),[21]; Temsavir 0.1 nM,85.6384% and 86.7177% and 89.7623%
same,Relative infectivity (%),[21]; Temsavir 0.5 nM,73.4943% and 55.2266% and 75.8961%
same,Relative infectivity (%),[21]; Temsavir 25 nM,4.928% and 3.547% and 2.352% and 8.953%
same,Relative infectivity (%),[21]; Temsavir 100 nM,2.171% and 1.397% and 0.7541% and 3.487%
same,IC50,[22]; Cf2Th-CD4/CCR5,64.7 nM
same,Relative infectivity (%),"[22]; JRFL S375M, Temsavir 0.1 nM",98.6007% and 143.038% and 92.762%
same,Relative infectivity (%),[23]; Temsavir 1 nM,42.8978% and 67.1593% and 55.5357%
same,Relative infectivity (%),[23]; Temsavir 5 nM,44.0227% and 46.691% and 23.9805%
same,Relative infectivity (%),[23]; Temsavir 50 nM,14.3245% and 26.4308% and 14.3408%
same,IC50,[23]; Cf2Th-CD4/CCR5,1.31 nM
same,Relative infectivity (%),[24]; Temsavir 5 nM,61.12% and 58.84% and 77.63%
same,Relative infectivity (%),[24]; Temsavir 100 nM,18.08% and 29.17% and 19.26%
